Measured values: ChEMBL document CHEMBL3507680, “University of Dundee, Gates Library screen for HepG2 cell viability”

Assay: Human HepG2 cell viability assay in 384 well format
Type: toxicity, cell-based
Design: dose 125 nL, time 70.5 hour; concentration not given beside the values
Details: HepG2 cells, read-out: Inhibition

Row | SMILES | cytotoxicity at 70.5 h [%]
1 | CCc1nc(CN2CCN(CC(O)c3ccccc3)CC2)no1 (configuration not stated) | 17.3
2 | CCc1noc(CN2CCN(CC(O)c3ccccc3)CC2)n1 (configuration not stated) | -3.73
3 | CC(C)c1nc(CN2CCN(CC(O)c3ccccc3)CC2)no1 (configuration not stated) | -4.77
4 | Cc1cnn(CC(C)NCc2csc(-c3ncccn3)n2)c1 (configuration not stated) | -2.17
5 | CCc1cccc(N2CCC(NC(=O)CCNC(N)=O)CC2)c1 | -6.16
6 | Cc1ccc(NC2CCN(C(=O)COc3cccc(F)c3)CC2)nn1 | 43.9
7 | Cc1nccn1C1CCCN(C(=O)c2ccnc(-n3ccnc3)c2)C1 (configuration not stated) | 10.7
8 | O=C(CCc1ccco1)N1CCCN(Cc2cscn2)CC1 | 11.4
9 | COc1cccc(NC(=O)NCC(O)c2ccc(F)cc2F)c1 (configuration not stated) | -6.35
10 | CC1CCCN(S(=O)(=O)NCc2ccccc2Cn2cncn2)C1 (configuration not stated) | -10.6
11 | CNC(=O)N1CCC(NC(=O)c2cnn(C)c2)CC1 | -11.2
12 | COc1cc(/C=C/c2ncc(C(=O)O)s2)cc(Cl)c1OC | 18.2
13 | CCOc1c(Cl)cc(/C=C/c2ncc(C(=O)O)s2)cc1OC | -18.4
14 | CCc1noc(CN2CCC(C(=O)Nc3cnn(CC)c3)CC2)n1 | -10.6
15 | CCCc1noc(CN2CCC(C(=O)Nc3cnn(CC)c3)CC2)n1 | -14.6
16 | O=C(c1ccnc(-n2ccnc2)c1)N1CCCC(n2ccnc2)C1 (configuration not stated) | -15
17 | Cc1nc(C)n(CC2CCCN2CC(=O)Nc2cc(C)on2)n1 (configuration not stated) | -8.96
18 | Cc1nc(C)n(CC2CCCCN2CC(=O)Nc2cc(C)on2)n1 (configuration not stated) | -13.4
19 | Cc1ccc(NC2CCN(C(=O)CCOCC(F)(F)F)CC2)nn1 | -2.83
20 | Cc1cc(NC(=O)CCN2CCCCC2Cn2cncn2)no1 (configuration not stated) | -15.1
21 | Cc1cc(C)n(CC2CCCCN2CCC(=O)Nc2cc(C)on2)n1 (configuration not stated) | -10.3
22 | Cc1nn(C)c(Cl)c1C1CCCN1CC(=O)NCc1ccco1 (configuration not stated) | -8.19
23 | Cc1cnc(C(=O)N2CCCC(n3cncn3)C2)cn1 (configuration not stated) | -4.15
24 | CC(=O)Nc1nc(C(=O)N2CCCC(n3cncn3)C2)cs1 (configuration not stated) | -11.2
25 | Cn1cc(C(=O)CC2CCCN2C(=O)c2coc3ccccc23)cn1 (configuration not stated) | -12.8
26 | Cn1cc(C(=O)CC2CCCN2C(=O)c2c[nH]c3ccccc23)cn1 (configuration not stated) | -13.9

Row | SMILES | cytotoxicity at 70.5 h [%]
27 | Cn1cc(C(=O)CC2CCCN2C(=O)c2ccncc2F)cn1 (configuration not stated) | -9.05
28 | Cc1nc(C)n(CC2CCCN(CCC(=O)Nc3cc(C)on3)C2)n1 (configuration not stated) | -9.8
29 | Cc1cnn(C2CCCN(C(=O)c3ccnc(-n4cncn4)c3)C2)c1 (configuration not stated) | -7.22
30 | COCCOc1ccccc1C(=O)NCCN(C)C(C)C | 16.8
31 | CC(C)N1CCN(C(=O)C(C)n2cncn2)CC1 (configuration not stated) | 5.67
32 | CC(C(=O)N1CCN(c2ncccn2)CC1)n1cncn1 (configuration not stated) | -9.39
33 | CC(C(=O)N1CCOCC1)n1cncn1 (configuration not stated) | -4.26
34 | Cc1ccc(-c2cnn(CC(=O)NC(C)C)c2)cc1 | -3.29
35 | COc1cc(CNCC2CNc3ccnn3C2)ccn1 (configuration not stated) | -3.41
36 | c1cc(CNCC2CNc3ccnn3C2)cc(OC2CCCCC2)n1 (configuration not stated) | -7.62
37 | Cc1cnn(CCC(=O)N2CCN(c3ccc(C#N)cn3)CC2)c1 | -3.08
38 | Cc1cc(C2CCCN2C(=O)NCc2c(C)cc(C)[nH]c2=O)on1 (configuration not stated) | -7.29
39 | Cc1cc(C)c(CNC(=O)N2CCCC2c2cc(C)on2)c(=O)[nH]1 (configuration not stated) | -7.12
40 | N#Cc1cccnc1N1CCCN(C(=O)CCn2cncn2)CC1 | -4.22
41 | CCN(CCNC(=O)c1cccc(C)c1C)C1CC1 | -4.1
42 | CC(C)Oc1ccccc1NC(=O)N1CCC(n2cncn2)CC1 | -3.08
43 | O=C1NCC(C(=O)Nc2ncc(Cc3ccc(F)cc3F)s2)N1 (configuration not stated) | -3.7
44 | Cc1nccn1C1CCCN(C(=O)CCCNc2ncccn2)C1 (configuration not stated) | -6.43
45 | CC1CN(C(=O)NCCNc2cnccn2)CCO1 (configuration not stated) | 25.6
46 | CC(C)(C)c1cnc(CN2CCCC2Cn2cccn2)o1 (configuration not stated) | -5.71
47 | Cc1nc(C)n(CC2CCCCN2CC(=O)Nc2ccncc2)n1 (configuration not stated) | 16.8
48 | N#Cc1ccc(OCCN2CCc3c(ncn3C3CC3)C2)cc1 | 8.16
49 | CCc1nc(CN2CCCN(C(=O)C(C)COC)CC2)cs1 (configuration not stated) | -2.68
50 | CCS(=O)(=O)c1ccccc1C(=O)NCc1ccnc(N(C)C)c1 | -11.2
51 | O=C(Cc1ccc2c(c1)OCCO2)NC1CCCC1 | 10.8
52 | COc1ncccc1NC(=O)C1CCN(S(C)(=O)=O)CC1 | -9.19

Row | SMILES | cytotoxicity at 70.5 h [%]
53 | CN(C)c1cc(CNC(=O)c2ccc(F)cc2F)ccn1 | -10.5
54 | CC(NC(=O)c1cccs1)C(=O)NCc1cccnc1N1CCCCC1 (configuration not stated) | -16.1
55 | Cc1ncsc1C(=O)NC1CCN(Cc2cccnc2)CC1 | 0.341
56 | CCc1nnc2n1CCN(CCS(=O)(=O)c1ccccc1)C2 | -11.4
57 | Cc1nnc2n1CCN(CCS(=O)(=O)c1ccccc1)C2 | -9.06
58 | Cc1nc(C)n(CC2CCCCN2CC(=O)NC2CCOCC2)n1 (configuration not stated) | -5.93
59 | CCc1nc(CN2CCCN(C(=O)C(C)n3cncn3)CC2)cs1 (configuration not stated) | -8.34
60 | CCc1nc(CN2CCCN(C(=O)C(C)n3ccnc3)CC2)cs1 (configuration not stated) | -9
61 | CC(NC(=O)NCc1cccnc1N1CCCCC1)c1nccs1 (configuration not stated) | -4.81
62 | CC(O)CN1CCN(C(=O)c2ccn(-c3cccc(Cl)c3)n2)CC1 (configuration not stated) | 13.7
63 | CSCc1cccc(C(=O)N2CCN(CC(C)O)CC2)c1 (configuration not stated) | -14.6
64 | COc1ccc(C(C)N2CCN(Cc3nccn3C)CC2)cc1Cl (configuration not stated) | -6.8
65 | Cc1cc(C)n(C2CN(CC(O)COc3ccc(F)cc3)C2)n1 (configuration not stated) | -16.7
66 | Cc1cccnc1CNc1cc(N2CCCC2CO)ncn1 (configuration not stated) | -8.44
67 | Cn1c(C2CC2)nc2c1CCN(CCOc1ccc(C#N)cc1)C2 | -9.07
68 | CC(C)c1cc(NC(=O)CN2CCc3c(nc(C(C)C)n3C)C2)on1 | -15
69 | CCc1nc(CN(C)C2CCN(CCNS(=O)(=O)CC)C2)no1 (configuration not stated) | 46.2
70 | FC(F)(F)Cn1ccnc1CN1CCCC1c1noc(C2CC2)n1 (configuration not stated) | -0.904
71 | CN(Cc1nnc(C2CC2)o1)C1CCN(CCCc2cnn(C)c2)C1 (configuration not stated) | 6.71
72 | CCc1nc(CN(C)C2CCN(CCS(C)(=O)=O)C2)no1 (configuration not stated) | 2.72
73 | CCc1nc(CN(C)C2CCN(CCc3ccccn3)C2)no1 (configuration not stated) | 3.72
74 | Fc1cccc(-c2nc(CN3CCn4c(nnc4C4CC4)C3)co2)c1 | -8.24
75 | Cc1nn2cccnc2c1C(=O)N1CCCC(n2ccnc2)C1 (configuration not stated) | -4.78
76 | CC(C)c1noc(CCC(=O)NCC2CCS(=O)(=O)C2)n1 (configuration not stated) | 1.64
77 | O=C(NCc1cc[nH]n1)NCC(O)c1ccc(F)cc1F (configuration not stated) | -9.36
78 | COc1ccc(C(C)NC(=O)NCCCn2cncn2)cc1F (configuration not stated) | -4.51

Row | SMILES | cytotoxicity at 70.5 h [%]
79 | NC(=O)NC(=O)CCN1CCCN(c2nccs2)CC1 | 0.668
80 | CCOc1ccc(CN2CCN(C(=O)c3ccc(C)n3C)CC2)cc1 | -0.122
81 | Cc1noc(Cl)c1CCC(=O)N1CCc2sccc2C1 | -1.52
82 | Cc1ncc2c(n1)CN(CCCc1nc3ccccc3o1)CC2 | -0.537
83 | CC(C)c1nnc2n1CCN(C(=O)c1ccnc(N(C)C)c1)C2 | -0.0863
84 | Cc1ccc(NC2CCN(C(=O)c3cccc4ncccc34)CC2)nn1 | 1.63
85 | COc1cc(S(=O)(=O)N2CCc3ccc(F)cc32)cc(C(=O)O)c1OC | 10.1
86 | O=C(NCCCNc1ccccc1)c1scnc1Cl | 4.41
87 | Fc1ccc(-c2nnc(CN3CCn4c(nnc4C4CC4)C3)o2)cc1 | -5.47
88 | Cc1ccc(C(N)c2cccc(S(C)(=O)=O)c2)cc1 (configuration not stated) | 4.98
89 | COc1ccc(C(N)c2cccc(S(C)(=O)=O)c2)cc1 (configuration not stated) | -1.22
90 | COc1cc(S(=O)(=O)N2CCCc3ccccc32)cc(C(=O)O)c1OC | 5.62
91 | c1csc(-c2nc(CN3CCn4c(nnc4C4CC4)C3)co2)c1 | -13.1
92 | Cc1cc(S(=O)(=O)N2CCc3ccc(F)cc32)cc(C(=O)O)c1C | 6.28
93 | CC(C)(C)c1nnc(CN2CCn3c(nnc3C3CC3)C2)o1 | -0.488
94 | Cc1nn2cccnc2c1C(=O)N1CCCC(Nc2ccccc2)C1 (configuration not stated) | -0.861
95 | O=C(NCc1cc[nH]n1)N(CCCO)C1CCc2ccccc21 (configuration not stated) | -0.509
96 | Cc1cnc(CN2CCCC2c2noc(C)n2)cn1 (configuration not stated) | 5.04
97 | Cc1ccc(NC2CCN(C(=O)c3cc(C(N)=O)cs3)CC2)nn1 | 11.5
98 | Cc1cnn(CC2CCCCN2CCCS(N)(=O)=O)c1 (configuration not stated) | 33.5
99 | Cc1cc(C)n(CC2CCCCN2CCCS(N)(=O)=O)n1 (configuration not stated) | 14
100 | Cc1cnc(CN(C)C2CCN(Cc3nc4ccccc4n3C)C2)o1 (configuration not stated) | 25.2
101 | Cc1ccc(CNC(=O)CN2CCCC(Cn3cncn3)C2)s1 (configuration not stated) | 22.1
102 | CS(=O)(=O)c1cccc(C(N)c2ccc(F)c(F)c2)c1 (configuration not stated) | -4.97
